Assay results taken from patent US4265901A, “2-Oxybenzimidazoline compounds” (priority 1979, dated 1981).
Values joined by “and” are separate entries in the source; they are usually repeats but may differ in a detail not shown here. Equal values may be shown once. Where a name gives a salt, the structure may show the parent alone.

Assays:
Pigweed = assay: Post-emergence herbicide test, pigweed; format: in vivo, Amaranthus retroflexus
Description: (§1) In this evaluation, each compound to be tested was dissolved in a 1:1 mixture of acetone and ethanol containing a small amount of Toximul R and Toximul S (each a sulfonate/nonionic blend produced by Stepan Chemical Company, Northfield, Illinois). The solution was then diluted with deionized water to a composition of the following concentrations, by weight: Plant species used as indicators of herbicidal activity were planted in galvanized pans (flats) 31.5 cm. long, 21.5 cm. wide, and 8.0 cm. deep. The bottoms of the flats had holes to facilitate drainage. The soil used was a 1:1 ratio by volume of masonry sand and shredded top soil. Seeds of seven indicator species were planted in rows perpendicular to the long axis of the flat, one species per row, and covered with 0.5 to 1.0 cm. of sterilized soil. Indicator species and approximate number of seeds planted were as follows: Flats that were to receive preemergence treatments were planted one day prior to, or on the same day treatments were applied. Flats that were to receive postemergence treatments were planted 9 days prior to treatment and placed in a growth chamber until the day of treatment. In the growth chamber, flats received 12 to 18 hours of light per day and were subject to temperatures of 75° to 85° F. The formulated test compound was applied uniformly to the indicator species with a modified DeVilbiss atomizer using air pressure of 3 to 5 psi. Each flat received 12.5 ml. of spray solution which was equal to 200 gallons/acre total spray volume. Plants were maintained in a greenhouse after treatment. Herbicidal effects of chemicals were evaluated by two injury rating systems 18 days after preemergence applications and 14 days after postemergence applications. The degree of plant injury was based on a 1 to 5 scale and a single numerical rating was assigned to each test species as follows: […]

Corn [1] = assay: Post-emergence herbicide test, corn; format: in vivo, Zea mays
Description: as §1

two-spotted spider mite = assay: Two-spotted spider mite test; format: in vivo, Tetranychus urticae; conditions: 4 days; note: ranges in brackets are in %
Description: In this evaluation, each compound to be tested was dissolved in a 1:1 mixture of acetone and ethanol containing a small amount of Toximul R and Toximul S (each a sulfonate/nonionic blend produced by Stephan Chemical Company, Northfield, Ill.). The solution was then diluted with distilled water to a concentration of 1000 ppm of test compound. Lesser concentration formulations were made by diluting a portion of the 1000 ppm solution with distilled water containing 225 mg. of Toximul R and 125 mg. of Toximul S per liter.
This test was conducted with nymphs and adults of Tetranychus urticae (Koch), Order Acarina, Family Tetranychidae.
This test was run using blue hubbard squash plants which were grown in vermiculite (insulation grade No. 1) in 5 oz. plastic Dixie cups. One cotyledon is removed from each plant to remain in the cups. On retests two plants were left in each cup and on regular initial tests one plant was left in each cup. Each cotyledon is infested by placing a mite infested trifoliate bean leaf on if. Infected plants in cups were held for one day, then sprayed to wetting with formulations containing 1000 ppm of the test compound, using the DeVilbiss atomizer with 5-6 psi air pressure. Retests were run at 100 ppm. Tests were read four days after treatment. Two unsprayed but infested plants were held as a control. Two infested plants were sprayed with a formulation containing 750 ppm of galecron [N'-(4-chloro-o-tolyl)-N,N-dimethylformamidine monohydrochloride] as a reference standard.

Morning-glory = assay: Pre-emergence herbicide test, morningglory; format: in vivo, Ipomoea purpurea
Description: as §1

Foxtail [2] = assay: Post-emergence herbicide test, foxtail; format: in vivo, Setaria italica
Description: as §1

Mexican bean beetle = Mexican bean beetle test; format: in vivo, Epilachna varivestis; conditions: 4 days; for Mexican Bean Beetle Stom. (mortality rating): ranges in brackets are in %
Description: (§2) In this evaluation, each compound to be tested was dissolved in a 1:1 mixture of acetone and ethanol containing a small amount of Toximul R and Toximul S (each a sulfonate/nonionic blend produced by Stephan Chemical Company, Northfield, Ill.). The solution was then diluted with distilled water to a concentration of 1000 ppm of test compound.
This test was conducted with second instar larvae of Epilachna varivestis Mulsant, order Coleoptera, family Coccinellidae. Larvae for the test, of uniform size and not molting, were picked by hand from flats of Bountiful snap beans on which they were grown and were placed in 100×20 mm plastic petri dishes for testing. Five larvae were used per replicate.
Two 4- to 6-day-old Bountiful green bean primry leaves (approximately 6 sq. in. of leaf surface) were used for each replicate. Two replicates were run per compound.
[…] […] The nozzle of the atomizer was held 12 to 18 inches from the leaves and was supplied with 5-6 psi air pressure. The atomizer was rinsed with acetone after each compound was sprayed. The plants were allowed to dry. The leaves were then cut from the plants and placed in the petri dishes containing the bean beetle larvae. A small wad of wet cellucotton was added to each dish to help prevent the leaves from wilting.
After 4 days, a mortality count was made and the amount of feeding was noted. Moribund larvae were counted as dead.

Velvetleaf [3] = assay: Post-emergence herbicide test, velvetleaf; format: in vivo, Abutilon theophrasti
Description: as §1

Foxtail [4] = assay: Pre-emergence herbicide test, foxtail; format: in vivo, Setaria italica
Description: as §1

Southern armyworm = Southern armyworm test; format: in vivo, Spodoptera eridania; conditions: 1000 ppm, 4 days; for Southern Armyworm Stom. (mortality rating): ranges in brackets are in %
Description: as §2
This test was conducted with second to third instar larvae of Spodoptera eridania Cramer, Order Lepidoptera, Family Noctuidae. Uniform larvae (3rd instar) about 1 to 1.2 cm. in length were picked by hand from flats of Henderson lima beans and placed in plastic petri dishes.
The procedure otherwise was the same as used with the Mexican bean beetle reported above, except that 5 ml. of a formulation containing 100 ppm (0.01%) DDT [1,1,1-trichloro-2,2-bis(p-chlorophenyl)ethane] was used as the reference standard.

Large Crabgrass = assay: Pre-emergence herbicide test, large crabgrass; format: in vivo, Digitaria sanguinalis
Description: as §1

Velvetleaf [5] = assay: Pre-emergence herbicide test, velvetleaf; format: in vivo, Abutilon theophrasti
Description: as §1

Corn [6] = assay: Pre-emergence herbicide test, corn; format: in vivo, Zea mays
Description: as §1

## O=[N+]([O-])c1cc(C(F)(F)F)cc2c1NC(O)(C(F)(F)C(F)F)N2 (stereo not shown) [Example 2, 2-Hydroxy-2-(1,1,2,2-Tetrafluoroethyl)-4-Nitro-6-(Trifluoromethyl)Benzimidazoline, Sodium Salt, and Hydrate]
Pigweed; 1/2 lb/A
  plant injury rating: 4BS
Pigweed; 1/4 lb/A
  plant injury rating: 3BS
Pigweed; 1 lb/A
  plant injury rating: 5D
Pigweed; 2 lb/A
  plant injury rating: 5D
Pigweed; 4 lb/A
  plant injury rating: 5D
Pigweed; 8 lb/A
  plant injury rating: 5D
Corn [1]; 1/2 lb/A
  plant injury rating: 1 (no injury)
Corn [1]; 1/4 lb/A
  plant injury rating: 1 (no injury)
Corn [1]; 2 lb/A
  plant injury rating: 3BS
Corn [1]; 4 lb/A
  plant injury rating: 3BS
Corn [1]; 8 lb/A
  plant injury rating: 5D
two-spotted spider mite; 100 ppm
  2-Sp. Spider Mite Cont. (mortality rating): 3 (100)
two-spotted spider mite; 1000 ppm
  2-Sp. Spider Mite Cont. (mortality rating): 3 (100)
Morning-glory; 1/2 lb/A
  plant injury rating: 1 (no injury)
Morning-glory; 1/4 lb/A
  plant injury rating: 1 (no injury)
Morning-glory; 1 lb/A
  plant injury rating: 1 (no injury)
Morning-glory; 2 lb/A
  plant injury rating: 2B
Morning-glory; 4 lb/A
  plant injury rating: 4BS
Morning-glory; 8 lb/A
  plant injury rating: 5N
Foxtail [2]; 1/2 lb/A
  plant injury rating: 3BS
Foxtail [2]; 1/4 lb/A
  plant injury rating: 3BS
Foxtail [2]; 1 lb/A
  plant injury rating: 4BS
Foxtail [2]; 2 lb/A
  plant injury rating: 4BS
Foxtail [2]; 4 lb/A
  plant injury rating: 4BS
Foxtail [2]; 8 lb/A
  plant injury rating: 5D
Mexican bean beetle; 100 ppm
  Mexican Bean Beetle Feed. (feeding rating): 0 (none of the leaves eaten)
  Mexican Bean Beetle Stom. (mortality rating): 3 (100)
Mexican bean beetle; 1000 ppm
  Mexican Bean Beetle Stom. (mortality rating): 3 (100)
Velvetleaf [3]; 1/2 lb/A
  plant injury rating: 2SB
Velvetleaf [3]; 1/4 lb/A
  plant injury rating: 2B
Velvetleaf [3]; 1 lb/A, Hydrate
  plant injury rating: 3BS and 4BS
Velvetleaf [3]; 2 lb/A
  plant injury rating: 5D
Velvetleaf [3]; 4 lb/A
  plant injury rating: 5D
Velvetleaf [3]; 8 lb/A
  plant injury rating: 5D
Foxtail [4]; 1/2 lb/A
  plant injury rating: 1 (no injury)
Foxtail [4]; 1/4 lb/A
  plant injury rating: 1 (no injury)
Foxtail [4]; 1 lb/A
  plant injury rating: 1 (no injury)
Foxtail [4]; 2 lb/A
  plant injury rating: 2S
Foxtail [4]; 4 lb/A
  plant injury rating: 2S
Foxtail [4]; 8 lb/A
  plant injury rating: 5N
Southern armyworm
  Southern Armyworm Stom. (mortality rating): 0 (0)
Large Crabgrass; 1/2 lb/A
  plant injury rating: 1 (no injury)
Large Crabgrass; 1/4 lb/A
  plant injury rating: 1 (no injury)
Large Crabgrass; 1 lb/A, Hydrate
  plant injury rating: 3S and 2S
Large Crabgrass; 2 lb/A
  plant injury rating: 4RS
Large Crabgrass; 4 lb/A
  plant injury rating: 4RS
Large Crabgrass; 8 lb/A
  plant injury rating: 5N
Velvetleaf [5]; 1/2 lb/A
  plant injury rating: 1 (no injury)
Velvetleaf [5]; 1/4 lb/A
  plant injury rating: 1 (no injury)
Velvetleaf [5]; 1 lb/A
  plant injury rating: 1 (no injury)
Velvetleaf [5]; 2 lb/A
  plant injury rating: 2S
Velvetleaf [5]; 4 lb/A
  plant injury rating: 4BS
Velvetleaf [5]; 8 lb/A
  plant injury rating: 5D
Corn [6]; 1/2 lb/A
  plant injury rating: 1 (no injury)
Corn [6]; 1/4 lb/A
  plant injury rating: 1 (no injury)
Corn [6]; 1 lb/A
  plant injury rating: 1 (no injury)
Corn [6]; 2 lb/A
  plant injury rating: 1 (no injury)
Corn [6]; 4 lb/A
  plant injury rating: 1 (no injury)
Corn [6]; 8 lb/A
  plant injury rating: 3SB

## O=[N+]([O-])c1cc(Cl)cc2c1NC(O)(C(F)F)N2 (stereo not shown) [Example 5, 2-Hydroxy-2-(Difluoromethyl)-4-Nitro-6-Chlorobenzimidazoline, Calcium Salt]
Pigweed; 1 lb/A
  plant injury rating: 2S
Pigweed; 2 lb/A
  plant injury rating: 3BS
Pigweed; 4 lb/A
  plant injury rating: 3BS
Pigweed; 8 lb/A
  plant injury rating: 4BS
Corn [1]; 1 lb/A
  plant injury rating: 1 (no injury)
Corn [1]; 2 lb/A
  plant injury rating: 2B
Corn [1]; 4 lb/A
  plant injury rating: 4BS
Corn [1]; 8 lb/A
  plant injury rating: 5D
two-spotted spider mite; 1000 ppm
  2-Sp. Spider Mite Cont. (mortality rating): 3 (100)
Morning-glory; 8 lb/A
  plant injury rating: 3RS
Foxtail [2]; 1 lb/A
  plant injury rating: 4BS
Foxtail [2]; 2 lb/A
  plant injury rating: 4BS
Foxtail [2]; 4 lb/A
  plant injury rating: 3BS
Foxtail [2]; 8 lb/A
  plant injury rating: 5D
Mexican bean beetle; 1000 ppm
  Mexican Bean Beetle Stom. (mortality rating): 3 (100)
Velvetleaf [3]; 1 lb/A
  plant injury rating: 3BS
Velvetleaf [3]; 2 lb/A
  plant injury rating: 3BS
Velvetleaf [3]; 4 lb/A
  plant injury rating: 4BS
Velvetleaf [3]; 8 lb/A
  plant injury rating: 5D
Foxtail [4]; 8 lb/A
  plant injury rating: 3R
Southern armyworm
  Southern Armyworm Feed. (feeding rating): 1 (1-50% of the leaves eaten)
Southern armyworm; Calcium Salt
  Southern Armyworm Stom. (mortality rating): 3 (100) and 2 (51-99)
Large Crabgrass; 8 lb/A
  plant injury rating: 3RS
Velvetleaf [5]; 8 lb/A
  plant injury rating: 3RS
Corn [6]; 8 lb/A
  plant injury rating: 1 (no injury)

## O=[N+]([O-])c1cc(C(F)(F)F)cc2c1NC(O)(C(F)(F)C(F)F)N2O (stereo not shown) [Example 12, 1,2-Dihydroxy-2-(1,1,2,2-Tetrafluoroethyl)-4-Nitro-6-(Trifluoromethyl)Benzimidazoline]
Pigweed; 1/4 lb/A
  plant injury rating: 3BS
Pigweed; 1/8 lb/A
  plant injury rating: 3BS
Pigweed; 1 lb/A
  plant injury rating: 5D
Pigweed; 2 lb/A
  plant injury rating: 5D
Pigweed; 8 lb/A
  plant injury rating: 5D
Corn [1]; 1/4 lb/A
  plant injury rating: 1 (no injury)
Corn [1]; 1/8 lb/A
  plant injury rating: 1 (no injury)
Corn [1]; 1 lb/A
  plant injury rating: 1 (no injury)
Corn [1]; 2 lb/A
  plant injury rating: 2B
Corn [1]; 8 lb/A
  plant injury rating: 1 (no injury)
two-spotted spider mite; 1000 ppm
  2-Sp. Spider Mite Cont. (mortality rating): 3 (100)
Morning-glory; 1/2 lb/A
  plant injury rating: 1 (no injury)
Morning-glory; 1 lb/A
  plant injury rating: 1 (no injury)
Morning-glory; 2 lb/A
  plant injury rating: 1 (no injury)
Morning-glory; 8 lb/A
  plant injury rating: 3BS
Foxtail [2]; 1/4 lb/A
  plant injury rating: 2B
Foxtail [2]; 1/8 lb/A
  plant injury rating: 2S
Foxtail [2]; 1 lb/A
  plant injury rating: 4BS
Foxtail [2]; 2 lb/A
  plant injury rating: 4BS
Foxtail [2]; 8 lb/A
  plant injury rating: 3BS
Mexican bean beetle; 1000 ppm
  Mexican Bean Beetle Stom. (mortality rating): 3 (100)
Velvetleaf [3]; 1/4 lb/A
  plant injury rating: 2B
Velvetleaf [3]; 1/8 lb/A
  plant injury rating: 2SB
Velvetleaf [3]; 1 lb/A
  plant injury rating: 4BS
Velvetleaf [3]; 2 lb/A
  plant injury rating: 4BS
Velvetleaf [3]; 8 lb/A
  plant injury rating: 4BS
Foxtail [4]; 1/2 lb/A
  plant injury rating: 1 (no injury)
Foxtail [4]; 1 lb/A
  plant injury rating: 1 (no injury)
Foxtail [4]; 2 lb/A
  plant injury rating: 1 (no injury)
Foxtail [4]; 8 lb/A
  plant injury rating: 2S
Southern armyworm
  Southern Armyworm Stom. (mortality rating): 0 (0)
Large Crabgrass; 1/2 lb/A
  plant injury rating: 1 (no injury)
Large Crabgrass; 1 lb/A
  plant injury rating: 2S
Large Crabgrass; 2 lb/A
  plant injury rating: 4SB
Large Crabgrass; 8 lb/A
  plant injury rating: 4RS
Velvetleaf [5]; 1/2 lb/A
  plant injury rating: 1 (no injury)
Velvetleaf [5]; 1 lb/A
  plant injury rating: 1 (no injury)
Velvetleaf [5]; 2 lb/A
  plant injury rating: 1 (no injury)
Velvetleaf [5]; 8 lb/A
  plant injury rating: 3BS
Corn [6]; 1/2 lb/A
  plant injury rating: 1 (no injury)
Corn [6]; 1 lb/A
  plant injury rating: 1 (no injury)
Corn [6]; 2 lb/A
  plant injury rating: 1 (no injury)
Corn [6]; 8 lb/A
  plant injury rating: 1 (no injury)
